{
  "source": "patent US6608076B1",
  "about": "“Camptothecin derivatives and polymeric conjugates thereof” (priority 2002, dated 2003)",
  "system": "human mammary carcinoma (MX-1)",
  "test": "Efficacy against subcutaneous human mammary carcinoma (MX-1) xenograft in nude mice",
  "assay_type": "in vivo",
  "excerpt": "General Procedures. All reactions were run under an atmosphere of dry nitrogen or argon. Commercial reagents were used without further purification. All PEG compounds were 40 kDa and were dried under vacuum or by azeotropic distillation from toluene prior to use. ^13C NMR spectra were obtained at 75.46 MHz using a Varian Mercurye® 300 NMR spectrometer and deuterated chloroform as the solvent unless otherwise specified. Chemical shifts (δ) are reported in parts per million (ppm) downfield from tetramethylsilane (TMS). All PEG conjugated compounds were dissolved in saline for injection prior to in vivo drug treatments and were given as their camptothecin equivalents (absolute amount of camptothecin given). HPLC method. The reaction mixtures and the purity of intermediates and final products were monitored by a Beckman Coulter System Gold® HPLC instrument employing a ZOBAXO® 300 SB C-8 reversed phase column (150×4.6 mm) or a Phenomenex Jupiter® 300A C18 reversed phase column (150×4.6 mm) with a multiwavelength UV detector, using a gradient of 30-90% of acetonitrile in 0.5% trifluoroacetic acid (TFA) at a flow rate of 1 mL/min.\nThe efficacy of open-form camptothecin analogs against a subcutaneous human mammary carcinoma (MX-1) grown in nude mice was determined as follows. Following at least one week of acclimation, tumors were established by implanting small tumor fragments from donor mice into a single subcutaneous site, on the left axillary flank region of nude mice. The tumor implantation site was observed twice weekly and measured once palpable. The tumor volume for each mouse was determined by measuring two dimensions with calipers and calculated using the formula: tumor volume=(length×width^2). When tumors reached the average volume of approximately 75 mm^3, the mice were divided into their experimental groups, which consists of untreated controls, PEG40,000-ala-20(S)-Camptothecin, compound 8, and compound 18.\nThe mice were sorted to evenly distribute tumor size, grouped into 4 to 5 mice/cage, and ear punched for permanent identification. Drugs were dosed intravenously via the tail vein as a single dose (Qd1). Mouse weight and tumor sizes were measured at the beginning of study and twice weekly through week 5. The overall growth of tumors was calculated as the mean tumor volume at one week following the end of the treatment. A percent treatment over control (T/C) value was also calculated when the control group's median tumor size reached approximately 800-1100 mm^3 and again at one week following treatment. The T/C value in percent is a non-quantitative indication of anti-tumor effectiveness.",
  "data": [
    {"substance": "PEG40,000-ala-20(S)-Camptothecin", "values": [
      {"measurement": "Difference in antitumor activity between the three compounds", "setting": "at equivalent doses", "result": "no significant (P<0.05) difference in the antitumor activity"},
      {"measurement": "Tumor Regression at Day 25 (#/grp)", "setting": "i.v. Qd1 (24 mg/kg/dose), Day 25", "result": "5/5"},
      {"measurement": "T/C (%) At 1000 mm^3", "setting": "i.v. Qd1 (24 mg/kg/dose), median tumor volume treated vs control when control median reached approx. 1000 mm^3, T/C < 42% considered significant", "result": 1.4, "unit": "%"},
      {"measurement": "Tumor volume as compared to control mice", "setting": "i.v. single dose, statistical comparison, P<0.05", "result": "significantly (P<0.05) smaller tumor volumes"},
      {"measurement": "Tumor Volume (mean ± sem) Day 21", "setting": "intravenous single dose Qd1 (24 mg/kg/dose, camptothecin equivalents), established tumors ~75 mm^3, Day 21", "result": "15 ± 5", "unit": "mm^3"}
    ]}
  ]
}
